Test results reported in US20240025862A1, “SUBSTITUTED N-PHENYLURACILS AND SALTS THEREOF, AND USE THEREOF AS HERBICIDAL ACTIVE SUBSTANCES” (Bayer Aktiengesellschaft, priority 2020, published 2024).

Legend:
Assay type in all cases: in vivo
[1] = tested on: Abutilon theophrasti (ABUTH); assay: Post-emergence herbicidal action, greenhouse pot test; settings: rated visually after about 3 weeks vs untreated controls, 100% = plants have died
Method in brief: (§1)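 Activity was scored by eye about 3 weeks after treatment against untreated plants, where 100% means dead plants and 0% means no difference. Plants at the one-leaf stage received a foliar spray of WP or EC formulations in water plus 0.5% additive (600 l/ha, up to 20 g/ha). Plants were grown in sandy loam pots in a greenhouse for 2–3 weeks before spraying.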

[2] = tested on: Amaranthus retroflexus (AMARE); assay: as above; settings: rated visually after about 3 weeks vs untreated controls, 100% = plants have died
Method in brief: as §1

[3] = tested on: Avena fatua (AVEFA); assay: as above; settings: 20 g/ha, rated visually after about 3 weeks vs untreated controls, 100% = plants have died
Method in brief: as §1

[4] = tested on: Hordeum murinum (HORMU); assay: as above; settings: rated visually after about 3 weeks vs untreated controls, 100% = plants have died
Method in brief: as §1

[5] = tested on: Lolium rigidum (LOLRI); assay: as above; settings: dosage 20 g/ha
Method in brief: as §1

[6] = tested on: Pharbitis purpurea (PHBPU); assay: as above
Method in brief: as §1

[7] = tested on: Polygonum convolvulus (POLCO); assay: as above
Method in brief: as §1

[8] = tested on: Stellaria media (STEME); assay: as above
Method in brief: as §1

[9] = tested on: Veronica persica (VERPE); assay: as above
Method in brief: as §1

[10] = tested on: Viola tricolor (VIOTR); assay: as above
Method in brief: as §1

[11] = tested on: Alopecurus myosuroides (ALOMY); assay: Post-emergence herbicidal action, greenhouse pot test (also comparative test C); settings: rated visually after about 3 weeks vs untreated controls, 100% = plants have died
Method in brief: (§2)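 Green parts of one-leaf-stage plants are sprayed at 600 l/ha with formulated compound plus 0.5% additive, then kept under optimum greenhouse conditions for about 3 weeks. Damage is scored visually, where 100% means dead plants and 0% means no difference from controls.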

[12] = tested on: Echinochloa crus-galli (ECHCG); assay: as above
Method in brief: as §2

[13] = tested on: Matricaria inodora (MATIN); assay: as above
Method in brief: as §2

[14] = tested on: Setaria viridis (SETVI); assay: as above
Method in brief: as §2

[15] = tested on: Brassica napus (BRSNW); assay: Post-emergence crop plant compatibility, greenhouse pot test; settings: 1.25 g/ha, vs untreated controls
Method in brief: (§3)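 Visual % damage vs untreated controls, scored ~3 weeks post-spray (100% = dead, 0% = as control). Plants in sandy loam, greenhouse; treated at one-leaf stage, 2–3 wk after sowing. WP/EC, aqueous, 0.5% additive, 600 l/ha. Suffixes a/b/c = different dosages.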

[16] = tested on: Triticum aestivum (TRZAS); assay: as above; settings: 1.25 g/ha, vs untreated controls
Method in brief: as §3

[17] = tested on: Zea mays (ZEAMX); assay: as above; settings: 1.25 g/ha, vs untreated controls
Method in brief: as §3

[18] = tested on: Oryza sativa (ORYSA); assay: Post-emergence crop plant compatibility, greenhouse pot test (also comparative test C); settings: 1.25 g/ha, vs untreated controls
Method in brief: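 Visual damage versus untreated plants (0% = like control, 100% = plants died) was scored about 3 weeks after a post-emergence spray in greenhouse pots. Treatment: one-leaf stage, WP or EC in water at 600 l/ha with 0.5% additive; a/b/c mark different dosages on the same crop.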

COCCOCCOC(=O)COc1ccccc1Sc1cc(-n2c(=O)cc(C(F)(F)F)n(C)c2=O)c(F)cc1Cl [I.1-23]
90%: Post-emergence action at 5 g/ha against ALOMY in % ([11]; 5 g/ha) | Post-emergence action at 20 g/ha against ALOMY in % ([11]; 20 g/ha) | Post-emergence action at 1.25 g/ha against ECHCG in % ([12]; 1.25 g/ha, rated visually after about 3 weeks vs untreated controls, 100% = plants have died)
20%: Post-emergence action against BRSNW (crop plant compatibility) [15] | Post-emergence action against TRZAS (crop plant compatibility) [16] | Post-emergence action against ORYSA (crop plant compatibility) [18]
80%: Post-emergence action at 20 g/ha against AVEFA in % [3] | Post-emergence action at 5 g/ha against HORMU in % ([4]; 5 g/ha) | Post-emergence action against LOLRI in % [5] | Post-emergence action against STEME ([8]; 1.25 g/ha) | Post-emergence action against MATIN in % ([13]; dosage 1.25 g/ha)
10%: Post-emergence action against ZEAMX (crop plant compatibility) [17]
100%: Post-emergence action at 1.25 g/ha against ABUTH in % ([1]; 1.25 g/ha) | Post-emergence action at 5 g/ha against ABUTH in % ([1]; 5 g/ha) | Post-emergence action at 20 g/ha against ABUTH in % ([1]; 20 g/ha) | Post-emergence action at 1.25 g/ha against AMARE in % ([2]; 1.25 g/ha) | Post-emergence action at 5 g/ha against AMARE in % ([2]; 5 g/ha) | Post-emergence action at 20 g/ha against AMARE in % ([2]; 20 g/ha) | Post-emergence action at 20 g/ha against HORMU in % ([4]; 20 g/ha) | Post-emergence action against PHBPU in % ([6]; dosage 1.25 g/ha) | Post-emergence action against PHBPU in % ([6]; dosage 5 g/ha) | Post-emergence action against PHBPU in % ([6]; dosage 20 g/ha) | Post-emergence action against POLCO in % ([7]; dosage 1.25 g/ha) | Post-emergence action against POLCO in % ([7]; dosage 5 g/ha) | Post-emergence action against POLCO in % ([7]; dosage 20 g/ha) | Post-emergence action against STEME ([8]; 5 g/ha) | Post-emergence action against STEME ([8]; 20 g/ha) | Post-emergence action against VERPE ([9]; 1.25 g/ha) | Post-emergence action against VERPE ([9]; 5 g/ha) | Post-emergence action against VERPE ([9]; 20 g/ha) | Post-emergence action against VIOTR ([10]; 1.25 g/ha) | Post-emergence action against VIOTR ([10]; 5 g/ha) | Post-emergence action against VIOTR ([10]; 20 g/ha) | Post-emergence action against ECHCG in % ([12]; dosage 5 g/ha) | Post-emergence action against ECHCG in % ([12]; dosage 20 g/ha) | Post-emergence action against MATIN in % ([13]; dosage 5 g/ha) | Post-emergence action against MATIN in % ([13]; dosage 20 g/ha) | Post-emergence action against SETVI ([14]; 20 g/ha) | Post-emergence action against SETVI in % ([14]; dosage 1.25 g/ha) | Post-emergence action against SETVI in % ([14]; dosage 5 g/ha)
